Experimental data: patent publication US20230364194A1, “GLP-1R/GCGR Dual Target Agonist Polypeptide Derivative for Treatment of Hepatic Fibrosis Associated with Viral Hepatitis” (Shenzhen Turier Biotech. Co., Ltd., priority 2020, published 2023)
Starred links: 1 amine or outer side, 2 acyl side, 3 side chain; linkers in the order of their positions; H or OH if unused. Non-standard residues stand in square brackets, D forms with d. Groups on a side chain read outwards from the residue. Primed or numbered codes have the meaning given here. No end group written: not given here. *: point of attachment. C18 diacid = O=C(O)CCCCCCCCCCCCCCCCC(=O)*; γGlu = O=C(O)[C@H](CCC(=O)[*:2])N[*:1]; Stearoyl = CCCCCCCCCCCCCCCCCC(=O)*; Palmitoyl = CCCCCCCCCCCCCCCC(=O)*; PEG2′ = not defined here; Aib = CC(C)(N)C(=O)O

Tests used:
[1] = test system: Hepatic stellate cell strain LX-2; experiment: In vitro effect on expression of LX-2 cell activation marker α-SMA (Western Blot, β-actin reference); format: cell-based; conditions: LX-2 cells, 10.0 uM, 48 hours, negative control = 100%
Excerpt: Hepatic stellate cell strain LX-2 (from China Center for Type Culture Collection, Shanghai) was selected to study and observe the effects of polypeptide compounds 1-25 on the expression level of LX-2 cell activation marker α-smooth muscle actin (α-SMA). The control group was given the same volume of Dulbecco’s modified Eagle medium (DMEM) (from Gibco, United States), and β-actin (from TransGen Biotech) as the endogenous reference, wherein, α-SMA is a symbolic feature that distinguishes […] from myofibroblasts.
Hepatic stellate cell LX-2 was laid on 35 mm cell culture plate, cultured with DMEM (high glucose)+10% FBS+1% double-antibody culture medium (Thermo Fisher), placed overnight when the cells grew to 70% convergence at 37° C. under the condition of 5% CO2 without serum, and treated with the above GLP-1R/GCGR dual target agonist polypeptide derivatives (namely, polypeptide compounds 1-25) (dissolved in PBS) for 48 hours from the next morning to extract cell protein, and then Western Blot was performed with β-actin as endogenous reference to analyze the expression levels of α-SMA and β-actin by gray-scale analysis using Image J 1.50i. PBS with the same volume as that in experimental group was added in negative control.
The above polypeptide compounds 1-25 with a concentration of 10.0 µM were added, showing that they could reduce the expression of α-SMA at the concentration of 10.0 µM; and the negative control had no effect on the expression of α-SMA (referring to Table 2).
The integrated gray scale of α-SMA/β-actin in the negative control group was considered to be 100% to analyze the in vitro inhibitory activity on hepatic fibrosis by tested polypeptides.

[2] = test system: HBV-infected humanized mouse liver; experiment: Hepatic fibrosis of HBV-infected humanized mouse (hepatitis virus-infected humanized mouse fibrosis model); format: in vivo; conditions: 40 ug/Kg, intraperitoneal injection, once every other day for 3 weeks; for Accumulation of collagen fibers (FG/SR staining of liver) / Hepatic fibrosis and inflammation level (FG/SR and H&E staining of liver): compared with control group without administration; for Serum ALT: versus before administration
Protocol: In order to study the effect of the polypeptide compounds of the present invention in hepatic fibrosis associated with viral hepatitis, the polypeptide compounds of the present invention were used for hepatic fibrosis of HBV-infected humanized mouse. […] The specific steps are shown as follows:
Forty newborn NOD-scid IL-2Rγ-/- (NIKO) mice were bred.
These mice were injected with human stem cells for humanization (2 weeks).
Referring to FIG. 10, blood samples were taken to determine the humanization level by flow cytometry. All the mice used in the experiment expressed humanization according to in vivo concentrations of CD4 and CD8.
The mice were divided into 8 groups, fed with high-fat diet and infected with HBV (1 week).
The development of fibrosis in mice was monitored (8-10 weeks).
The polypeptide compounds 2, 5, 11, 15, 20, 23 and 25 were selected, which were stored at -20° C.
The above 40 mice were divided into 8 groups for injection treatment, with grouping and injection administration as follows: blank model control group (CTR), physiological saline, intraperitoneal injection, n=5. • 1) Administration group, polypeptide compound 2, 40 ug/Kg, intraperitoneal injection, n=5. • 2) Administration group, polypeptide compound 5, 40 ug/Kg, intraperitoneal injection, n=5. • 3) Administration group, polypeptide compound 11, 40 ug/Kg, intraperitoneal injection, n=5. • 4) Administration group, polypeptide compound 15, 40 ug/Kg, intraperitoneal injection, n=5. • 5) Administration group, polypeptide compound 20, 40 ug/Kg, intraperitoneal injection, n=5. • 6) Administration group, polypeptide compound 23, 40 ug/Kg, intraperitoneal injection, n=5. • 7) Administration group, polypeptide compound 25, 40 ug/Kg, intraperitoneal injection, n=5.
They were injected once every other day for 3 weeks.
After 3 weeks of administration, the mice were sacrificed to take samples for subsequent bioassay experiments. The serum samples from the mice were used for ALT and human IFNγ tests. Paraffin sections were prepared from partial liver tissues of the mice and stained with hematoxylin-eosin (H&E), […]/Sirius red (FG/SR) and immunohistochemical fluorescence (α-SMA), and statistics were made with Image-pro plus, Graph pad and similar software.
In the HBV induced hepatic fibrosis model, its characteristics are: inflammatory cell infiltration around the central vein area, hydropic degeneration of hepatocytes, and increased accumulation of collagen fibers in the portal area and the hepatic interlobular septum. After 3 weeks of administration, the mice were sacrificed to take samples. Blood was taken from the retrobulbar vein for detection of serological indicators, and liver tissues were taken for pathological analysis.

Substance	Relative expression of α-SMA (α-SMA/β-actin, %) [1] [%]	α-SMA expression in liver tissues (IF staining) [2]	Accumulation of collagen fibers (FG/SR staining of liver) [2]	Hepatic fibrosis and inflammation level (FG/SR and H&E staining of liver) [2]	Serum ALT [2]
His-(D-Ser)-Gln-Gly-Thr-Phe-Thr-Ser-Asp-Tyr-Ser-Lys-Tyr-Leu-Asp-Lys(PEG2-PEG2-CO(CH2)14CH3)-Arg-Arg-Ala-Gln- Asp-Phe-Val-Gln-Trp-Leu-Leu-Asn-Thr-Gly-Gly-Pro-Ser-Ser-Gly-Ala-Pro-Pro-Pro-Ser-NH2 (H[dS]QGTFTSDYSKYLDK([PEG2′-PEG2′-Palmitoyl])RRAQDFVQWLLNTGGPSSGAPPPS-NH2) [Compound 25]	39.17	significantly inhibited	significantly inhibited the accumulation of collagen fibers	decreased the hepatic fibrosis and inflammation level	decreased from that before administration
His-(D-Ser)-Gln-Gly-Thr-Phe-Thr-Ser-Asp-Tyr-Ser-Lys-Tyr-Leu-Asp-Glu-Lys-Ala-Ala-Lys(PEG2-PEG2-γGlu- CO(CH2)14CH3)-Glu-Phe-Ile-Glu-Trp-Leu-Leu-Asn-Gly-Gly- Gly-Pro-Ser-Ser-Gly-Ala-Pro-Pro-Pro-Ser-NH2 (H[dS]QGTFTSDYSKYLDEKAAK([PEG2′-PEG2′-γGlu-Palmitoyl])EFIEWLLNGGGPSSGAPPPS-NH2) [Compound 15]	37.25	significantly inhibited	significantly inhibited the accumulation of collagen fibers	decreased the hepatic fibrosis and inflammation level	decreased from that before administration
His-Aib-Gln-Gly-Thr-Phe-Thr-Ser-Asp-Lys(PEG2-PEG2-yGlu- CO(CH2)16CO2H)-Ser-Lys-Tyr-Leu-Asp-Glu-Arg-Arg-Ala- Gln-Asp-Phe-Val-Gln-Trp-Leu-Leu-Asp-Gly-Gly-Gly-Pro-Ser-Ser-Gly-Ala-Pro-Pro-Pro-Ser-NH2 (H[Aib]QGTFTSDK([PEG2′-PEG2′-γGlu-C18 diacid])SKYLDERRAQDFVQWLLDGGGPSSGAPPPS-NH2) [Compound 5]	37.04	significantly inhibited	significantly inhibited the accumulation of collagen fibers	decreased the hepatic fibrosis and inflammation level	decreased from that before administration
His-(D-Ser)-Gln-Gly-Thr-Phe-Thr-Ser-Asp-Tyr-Ser-Lys-Tyr-Leu-Asp-Lys(PEG2-PEG2-γGlu-CO(CH2)14CH3)-Arg-Arg-Ala- Gln-Asp-Phe-Val-Gln-Trp-Leu-Leu-Asn-Thr-Gly-Gly-Pro-Ser-Ser-Gly-Ala-Pro-Pro-Pro-Ser-NH2 (H[dS]QGTFTSDYSKYLDK([PEG2′-PEG2′-γGlu-Palmitoyl])RRAQDFVQWLLNTGGPSSGAPPPS-NH2) [Compound 23]	36.15	significantly inhibited	significantly inhibited the accumulation of collagen fibers	decreased the hepatic fibrosis and inflammation level	decreased from that before administration
His-(D-Ser)-Gln-Gly-Thr-Phe-Thr-Ser-Asp-Tyr-Ser-Lys-Tyr-Leu-Asp-Lys(PEG2-PEG2-yGlu-CO(CH2)14CH3)-Arg-Arg-Ala- Gln-Asp-Phe-Val-Gln-Trp-Leu-Nle-Asn-Thr-Gly-Gly-Pro-Ser-Ser-Gly-Ala-Pro-Pro-Pro-Ser-NH2 (HXQGTFTSDYSKYLDKRRAQDFVQWLXNTGGPSSGAPPPS; D-Ser; Nle; PEG2-PEG2-γGlu-palmitoyl lipidation; C-terminal amide; (2)..(2) Xaa=D-Ser; (16)..(16) A side chain of Lys is linked to -PEG2-PEG2-AGlu-CO(CH2)14CH3; (27)..(27) Xaa=Nle) [Compound 20]	32.58	significantly inhibited	significantly inhibited the accumulation of collagen fibers	decreased the hepatic fibrosis and inflammation level	decreased from that before administration
His-(D-Ser)-Gln-Gly-Thr-Phe-Thr-Ser-Asp-Tyr-Ser-Lys-Tyr-Leu-Asp-Glu-Lys-Ala-Ala-Lys(PEG2-PEG2-yGlu- CO(CH2)16CH3)-Glu-Phe-Ile-Glu-Trp-Leu-Leu-Arg-Gly-Gly- Gly-Pro-Ser-Ser-Gly-Ala-Pro-Pro-Pro-Ser-NH2 (H[dS]QGTFTSDYSKYLDEKAAK([PEG2′-PEG2′-γGlu-Stearoyl])EFIEWLLRGGGPSSGAPPPS-NH2) [Compound 11]	35.78	significantly inhibited	significantly inhibited the accumulation of collagen fibers	decreased the hepatic fibrosis and inflammation level	decreased from that before administration
His-(D-Ser)-Gln-Gly-Thr-Phe-Thr-Ser-Asp-Tyr-Ser-Lys-Tyr-Leu-Asp-Glu-Lys(PEG2-PEG2-γGlu-CO(CH2)16CO2H)-Arg- Ala-Gln-Asp-Phe-Val-Gln-Trp-Leu-Met-Asn-Thr-Gly-Gly-Pro-Ser-Ser-Gly-Ala-Pro-Pro-Pro-Ser-NH2 (H[dS]QGTFTSDYSKYLDEK([PEG2′-PEG2′-γGlu-C18 diacid])RAQDFVQWLMNTGGPSSGAPPPS-NH2) [Compound 2]	34.65	significantly inhibited	significantly inhibited the accumulation of collagen fibers	decreased the hepatic fibrosis and inflammation level	decreased from that before administration
